Assay results: ChEMBL document CHEMBL1201862, “PubChem BioAssay data set” (2004)
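Briefly, cells in 96-well plates were exposed to five compound concentrations for 48 h, and endpoints were estimated by linear interpolation. Here, GI50 denotes the concentration required for 50% inhibition of growth.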 Calls of active or inactive are those of the source. Rule as the data show it: active = GI50 up to about 1.1 µM and inactive = higher.

Assays:
Experiment in all cases: growth of human tumour cells (NCI), 48 h
A549 = system: A549
CAKI-1 = system: CAKI-1
HL-60 = system: HL-60
HOP-92 = system: HOP-92
K562 = system: K562
KM12 = system: KM12
LOX IMVI = system: LOX IMVI
MDA-MB-435 = system: MDA-MB-435
MOLT-4 = system: MOLT-4
NCI-H226 = system: NCI-H226
OVCAR-3 = system: OVCAR-3
RPMI-8226 = system: RPMI-8226
SF-539 = system: SF-539
SK-MEL-5 = system: SK-MEL-5
SK-OV-3 = system: SK-OV-3
SR = system: SR
TK-10 = system: TK-10
U-251 = system: U-251
UO-31 = system: UO-31
BT-549 = system: BT-549

SMILES | GI50 (A549) | GI50 (CAKI-1) | GI50 (HL-60) | GI50 (HOP-92) | GI50 (K562) | GI50 (KM12) | GI50 (LOX IMVI) | GI50 (MDA-MB-435) | GI50 (MOLT-4) | GI50 (NCI-H226) | GI50 (OVCAR-3) | GI50 (RPMI-8226) | GI50 (SF-539) | GI50 (SK-MEL-5) | GI50 (SK-OV-3) | GI50 (SR) | GI50 (TK-10) | GI50 (U-251) | GI50 (UO-31) | GI50 (BT-549)
O=C1NCCCc2nonc21 | > 100 µM (inactive) | > 100 µM (inactive) | > 100 µM (inactive) | > 100 µM (inactive) | > 100 µM (inactive) | > 100 µM (inactive) | > 100 µM (inactive) | > 100 µM (inactive) | > 100 µM (inactive) | > 100 µM (inactive) | > 100 µM (inactive) | > 100 µM (inactive) | > 100 µM (inactive) | > 100 µM (inactive) | > 100 µM (inactive) | > 100 µM (inactive) | > 100 µM (inactive) | > 100 µM (inactive) | > 100 µM (inactive) | –
COc1ccc(/C=C2\CCC(C)c3c2nc(N)c(C#N)c3-c2ccc(OC)c(OC)c2)cc1OC (stereo not given) | – | 58.5 µM (inactive) | 5.08 µM (inactive) | – | 12 µM (inactive) | 7.6 µM (inactive) | 66.4 µM (inactive) | 10.8 µM (inactive) | 3.1 µM (inactive) | 5.7 µM (inactive) | 9.29 µM (inactive) | 3.65 µM (inactive) | 27.4 µM (inactive) | 4.84 µM (inactive) | 18.5 µM (inactive) | – | 10.8 µM (inactive) | 9.44 µM (inactive) | 3.16 µM (inactive) | 8 µM (inactive)
CNC(=O)CN(CC(N)=O)C(=O)NC | > 100 µM (inactive) | > 100 µM (inactive) | > 100 µM (inactive) | > 100 µM (inactive) | > 100 µM (inactive) | > 100 µM (inactive) | > 100 µM (inactive) | – | > 100 µM (inactive) | > 100 µM (inactive) | > 100 µM (inactive) | > 100 µM (inactive) | > 100 µM (inactive) | > 100 µM (inactive) | > 100 µM (inactive) | > 100 µM (inactive) | > 100 µM (inactive) | > 100 µM (inactive) | > 100 µM (inactive) | –
N#Cc1sc2c(c1OC(=O)c1ccc(C(F)(F)F)cc1)c(=O)n(-c1ccccc1)c(=S)n2-c1ccccc1 | 23.3 µM (inactive) | 32.4 µM (inactive) | 21 µM (inactive) | 19.7 µM (inactive) | 28.2 µM (inactive) | 27.7 µM (inactive) | 24.5 µM (inactive) | 26.5 µM (inactive) | 19.5 µM (inactive) | 29.8 µM (inactive) | 19.5 µM (inactive) | 17.4 µM (inactive) | 25.2 µM (inactive) | 24.9 µM (inactive) | 38.5 µM (inactive) | 0.0481 µM (active) | 27.6 µM (inactive) | 20.7 µM (inactive) | – | –
N#Cc1ccc(/C=N/NC(=O)CSCC(=O)N/N=C/c2ccc(C#N)cc2)cc1 | > 100 µM (inactive) | > 100 µM (inactive) | > 100 µM (inactive) | > 100 µM (inactive) | > 100 µM (inactive) | > 100 µM (inactive) | – | > 100 µM (inactive) | > 100 µM (inactive) | > 100 µM (inactive) | > 100 µM (inactive) | > 100 µM (inactive) | > 100 µM (inactive) | > 100 µM (inactive) | > 100 µM (inactive) | > 100 µM (inactive) | 56 µM (inactive) | 48.1 µM (inactive) | > 100 µM (inactive) | –
O=C1NCCS(=O)(=O)N2CCC[C@@H]12 | > 100 µM (inactive) | > 100 µM (inactive) | > 100 µM (inactive) | > 100 µM (inactive) | > 100 µM (inactive) | > 100 µM (inactive) | > 100 µM (inactive) | – | > 100 µM (inactive) | 60.3 µM (inactive) | > 100 µM (inactive) | > 100 µM (inactive) | > 100 µM (inactive) | > 100 µM (inactive) | > 100 µM (inactive) | > 100 µM (inactive) | > 100 µM (inactive) | > 100 µM (inactive) | > 100 µM (inactive) | –
CC(C)=C[C@H]1CCC2(OCCO2)[C@]1(C)COCc1ccccc1 | 33.3 µM (inactive) | 32 µM (inactive) | – | – | – | 33.7 µM (inactive) | 17.2 µM (inactive) | 26.4 µM (inactive) | 13.8 µM (inactive) | 14.1 µM (inactive) | 22 µM (inactive) | 18.2 µM (inactive) | 21.7 µM (inactive) | 16.3 µM (inactive) | 32.4 µM (inactive) | – | 40.7 µM (inactive) | – | 43.6 µM (inactive) | 42.7 µM (inactive)
C=CC1(c2ccc(Cl)c(Cl)c2)OCCO1 | > 100 µM (inactive) | – | 16.6 µM (inactive) | 23.2 µM (inactive) | 27.7 µM (inactive) | > 100 µM (inactive) | > 100 µM (inactive) | > 100 µM (inactive) | > 100 µM (inactive) | 71.8 µM (inactive) | > 100 µM (inactive) | > 100 µM (inactive) | – | > 100 µM (inactive) | > 100 µM (inactive) | 55.8 µM (inactive) | > 100 µM (inactive) | > 100 µM (inactive) | > 100 µM (inactive) | –
